Key:
Type in all cases: biochemical
MER kinase = MER kinase (Homo sapiens (Human), UniProt Q12866); test: Assay of small molecular compounds for inhibiting the activity of MER kinase (LANCE TR-FRET)
Description: The assay of small molecular compounds for inhibiting the activity of MER kinase is based on the LANCE TR-FRET technology of Perkin Elmer Inc., and the assay method is as follows: • 1. Dilution of compounds: a total of 11 concentrations were obtained using a 3-fold gradient dilution from the highest concentration of 2500 nM (the maximum final concentration of the drug used in this assay was 2500 nM, and the minimum final concentration was 0.042 nM). • 2. 2.5 μL of the gradient-diluted compounds were taken with a transfer pipette to a 384-well plate. • 3. Addition of enzyme: 5 μL of 2×MER kinase solution (with a concentration of 1 nM) was taken with a transfer pipette to the corresponding reaction well of the 384-well plate, mixed well and pre-reacted at room temperature for 5 minutes. • 4. 2.5 μL 4× ULight-labeled Ploy GT (with a concentration of 200 nM)/ATP (with a concentration of 20 μM) mixture was taken with a transfer pipette to the corresponding reaction well of the 384-well plate. • 5. Negative control: 2.5 μL/well 4× substrate/ATP mixture and 7.5 μL 1× Kinase Assay Buffer were added to the wells of the 384-well plate.
(§1) Positive control: 2.5 μL/well 4× substrate/ATP mixture, 2.5 μL/well 1× Kinase Assay Buffer containing 4% DMSO, and 5 μL/well 2×MER kinase solution were added to the 384-well plate. The final concentration of DMSO in the reaction system was 1%. • 6. The mixture was mixed well and then centrifuged and reacted at room temperature in dark for 60 min. • 7. Termination of the enzymatic reaction: 5 μL of 4× stop solution was taken with a transfer pipette to the wells of the 384-well plate, mixed and then centrifuged, and reacted at room temperature for 5 min. • 8. Development of the reaction: 5 μL of 4× detection solution was taken with a transfer pipette to the wells of the 384-well plate for color development, and the mixture was mixed and then centrifuged and reacted at room temperature for 60 min. • 9. The 384-well plate was placed into the Envision plate reader and the signal was detected using the appropriate program. • 10. Analysis and processing of the raw data:
The drug concentrations and the corresponding inhibition rates were input into GraphPad Prism5 for calculation, and the inhibition rate of the compounds were calculated as follows: inhibition rate (%)=(reading of positive well−reading of experimental well)/(reading of positive control well−reading of negative control well)×100%. Processing with GraphPad Prism5 software yielded the corresponding IC50 values (the concentration of the compound at which 50% of the highest inhibition of the enzyme is achieved).

VEGFR-2 kinase = VEGFR-2 kinase (Homo sapiens (Human), UniProt P35968); test: Assay of small molecular compounds for inhibiting the activity of VEGFR-2 kinase (LANCE TR-FRET); conditions: read-out: VEGFR2 IC50
Chain of VEGFR-2 kinase (P35968 20-1356): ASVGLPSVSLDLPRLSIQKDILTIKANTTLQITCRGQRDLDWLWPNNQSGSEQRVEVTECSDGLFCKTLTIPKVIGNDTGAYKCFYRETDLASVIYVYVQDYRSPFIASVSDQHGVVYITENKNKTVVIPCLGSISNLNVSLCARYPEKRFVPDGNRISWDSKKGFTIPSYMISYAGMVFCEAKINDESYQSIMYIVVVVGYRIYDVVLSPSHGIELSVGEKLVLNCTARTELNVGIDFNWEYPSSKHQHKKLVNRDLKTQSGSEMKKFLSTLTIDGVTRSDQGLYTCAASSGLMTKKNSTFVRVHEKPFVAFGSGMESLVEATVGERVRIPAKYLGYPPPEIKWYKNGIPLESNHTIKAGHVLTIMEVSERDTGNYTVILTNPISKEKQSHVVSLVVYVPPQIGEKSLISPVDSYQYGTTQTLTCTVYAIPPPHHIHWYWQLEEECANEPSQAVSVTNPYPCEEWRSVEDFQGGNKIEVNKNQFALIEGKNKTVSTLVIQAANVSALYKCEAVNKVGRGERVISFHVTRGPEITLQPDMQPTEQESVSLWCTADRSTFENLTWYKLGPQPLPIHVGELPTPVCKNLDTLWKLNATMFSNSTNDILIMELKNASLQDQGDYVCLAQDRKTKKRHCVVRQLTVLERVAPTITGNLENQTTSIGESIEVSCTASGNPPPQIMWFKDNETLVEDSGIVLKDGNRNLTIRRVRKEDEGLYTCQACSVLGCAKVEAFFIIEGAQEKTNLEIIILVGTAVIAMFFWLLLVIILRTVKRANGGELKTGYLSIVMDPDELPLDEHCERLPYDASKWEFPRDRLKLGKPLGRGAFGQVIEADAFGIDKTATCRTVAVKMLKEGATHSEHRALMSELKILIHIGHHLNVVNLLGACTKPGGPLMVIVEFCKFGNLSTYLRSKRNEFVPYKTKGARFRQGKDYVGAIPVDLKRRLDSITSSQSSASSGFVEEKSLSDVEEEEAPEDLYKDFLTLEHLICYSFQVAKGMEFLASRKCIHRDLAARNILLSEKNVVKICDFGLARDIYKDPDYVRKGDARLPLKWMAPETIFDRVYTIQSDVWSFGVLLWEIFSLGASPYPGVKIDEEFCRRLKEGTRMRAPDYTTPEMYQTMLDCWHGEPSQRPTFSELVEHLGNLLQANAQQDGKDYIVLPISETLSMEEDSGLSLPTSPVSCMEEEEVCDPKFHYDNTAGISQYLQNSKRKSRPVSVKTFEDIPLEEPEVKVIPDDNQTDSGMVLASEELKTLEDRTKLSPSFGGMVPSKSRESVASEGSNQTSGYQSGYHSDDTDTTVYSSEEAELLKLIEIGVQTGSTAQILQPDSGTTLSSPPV
Description: (§2) The assay is based on the LANCE TR-FRET technology of Perkin Elmer Inc., and the assay method is as follows: • 1. Dilution of compounds: a total of 11 concentrations were obtained using a 3-fold gradient dilution from the highest concentration of 2500 nM (the maximum final concentration of the drug used in this assay was 2500 nM, and the minimum final concentration was 0.042 nM). • 2. 2.5 μL of the gradient-diluted compounds were taken with a transfer pipette to a 384-well plate. • 3. Addition of enzyme: 5 μL of 2×VEGFR2 kinase solution (with a concentration of 0.5 nM) was taken with a transfer pipette to the corresponding reaction well of the 384-well plate, mixed well and pre-reacted at room temperature for 30 minutes. • 4. 2.5 μL 4× Ultra ULight™-JAK-1 (Tyr1023) Peptide (with a concentration of 200 nM)/ATP (with a concentration of 40 μM) mixture was taken with a transfer pipette to the corresponding reaction well of the 384-well plate. • 5. Negative control: 2.5 μL/well 4× substrate/ATP mixture and 7.5 μL 1× Kinase Assay Buffer were added to the wells of the 384-well plate. • 6. Positive control: 2.5 μL/well 4× substrate/ATP mixture, 2.5 μL/well 1× Kinase Assay Buffer containing 16% DMSO, and 5 μL/well 2×VEGFR-2 kinase solution were added to the 384-well plate. The final concentration of DMSO in the reaction system was 4%. • 7. The mixture was mixed well and then centrifuged and reacted at room temperature in dark for 60 min. • 8. Termination of the enzymatic reaction: 5 μL of 4× stop solution was taken with a transfer pipette to the wells of the 384-well plate, mixed and then centrifuged, and reacted at room temperature for 5 min. • 9. Development of the reaction: 5 μL of 4× detection solution was taken with a transfer pipette to the wells of the 384-well plate for color development, and the mixture was mixed and then centrifuged and reacted at room temperature for 60 min. • 10. The 384-well plate was placed into the Envision plate reader and the signal was detected using the appropriate program. • 11. Analysis and processing of the raw data: The drug concentrations and the corresponding inhibition rates were input into GraphPad Prism5 for calculation, and the inhibition rate of the compounds were calculated as follows: inhibition rate (%)=(reading of positive well−reading of experimental well)/(reading of positive control well−reading of negative control well)×100%. Processing with GraphPad Prism5 software yielded the corresponding IC50 values (the concentration of the compound at which 50% of the highest inhibition of the enzyme is achieved).

TRKA kinase = TRKA kinase (Homo sapiens (Human), UniProt P04629); test: Assay of small molecular compounds for inhibiting the activity of TRKA kinase (LANCE TR-FRET)
Chain of TRKA kinase (P04629 33-796): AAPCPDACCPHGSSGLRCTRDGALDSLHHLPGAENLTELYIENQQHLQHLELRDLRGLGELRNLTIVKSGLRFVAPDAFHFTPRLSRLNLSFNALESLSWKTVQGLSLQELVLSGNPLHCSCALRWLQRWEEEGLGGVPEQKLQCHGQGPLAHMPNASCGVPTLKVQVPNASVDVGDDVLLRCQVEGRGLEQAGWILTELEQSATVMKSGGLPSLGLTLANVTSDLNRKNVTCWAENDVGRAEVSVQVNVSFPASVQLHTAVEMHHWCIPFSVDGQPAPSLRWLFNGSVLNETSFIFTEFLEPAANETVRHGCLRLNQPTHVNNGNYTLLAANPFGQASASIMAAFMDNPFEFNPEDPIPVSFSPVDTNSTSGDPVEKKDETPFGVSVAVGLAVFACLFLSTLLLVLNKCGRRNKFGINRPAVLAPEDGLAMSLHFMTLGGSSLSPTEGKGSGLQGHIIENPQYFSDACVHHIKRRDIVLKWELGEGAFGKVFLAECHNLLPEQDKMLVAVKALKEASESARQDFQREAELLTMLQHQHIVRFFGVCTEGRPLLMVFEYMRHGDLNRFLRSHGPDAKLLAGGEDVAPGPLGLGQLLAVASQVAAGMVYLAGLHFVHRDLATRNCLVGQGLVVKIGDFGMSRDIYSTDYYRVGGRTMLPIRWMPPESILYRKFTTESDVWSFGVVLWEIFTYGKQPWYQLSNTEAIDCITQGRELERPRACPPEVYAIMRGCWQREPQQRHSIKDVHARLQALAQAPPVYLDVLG
Description: The assay of small molecular compounds for inhibiting the activity of TRKA kinase is based on the LANCE TR-FRET technology of Perkin Elmer Inc., and the assay method is as follows: • 1. […] 2.5 μL of the gradient-diluted compounds were taken with a transfer pipette to a 384-well plate. • 3. Addition of enzyme: 5 μL of 2×TRKA kinase solution (with a concentration of 2 nM) was taken with a transfer pipette to the corresponding reaction well of the 384-well plate, mixed well and pre-reacted at room temperature for 5 minutes. • 4. 2.5 μL 4× Ultra ULight-labeled TK Peptide (with a concentration of 400 nM)/ATP (with a concentration of 40 μM) mixture was taken with a transfer pipette to the corresponding reaction well of the 384-well plate. • 5. Negative control: 2.5 μL/well 4× substrate/ATP mixture and 7.5 μL 1× Kinase Assay Buffer were added to the wells of the 384-well plate.
as §1, with “2×TRKA” for “2×MER”, “program.” for “program. • 10. Analysis and processing of the raw data:”

c-MET kinase = c-MET kinase (Homo sapiens (Human), UniProt P08581); test: Assay of small molecular compounds for inhibiting the activity of c-MET kinase (LANCE TR-FRET); conditions: read-out: CMET IC50
Chain of c-MET kinase (P08581 25-1390): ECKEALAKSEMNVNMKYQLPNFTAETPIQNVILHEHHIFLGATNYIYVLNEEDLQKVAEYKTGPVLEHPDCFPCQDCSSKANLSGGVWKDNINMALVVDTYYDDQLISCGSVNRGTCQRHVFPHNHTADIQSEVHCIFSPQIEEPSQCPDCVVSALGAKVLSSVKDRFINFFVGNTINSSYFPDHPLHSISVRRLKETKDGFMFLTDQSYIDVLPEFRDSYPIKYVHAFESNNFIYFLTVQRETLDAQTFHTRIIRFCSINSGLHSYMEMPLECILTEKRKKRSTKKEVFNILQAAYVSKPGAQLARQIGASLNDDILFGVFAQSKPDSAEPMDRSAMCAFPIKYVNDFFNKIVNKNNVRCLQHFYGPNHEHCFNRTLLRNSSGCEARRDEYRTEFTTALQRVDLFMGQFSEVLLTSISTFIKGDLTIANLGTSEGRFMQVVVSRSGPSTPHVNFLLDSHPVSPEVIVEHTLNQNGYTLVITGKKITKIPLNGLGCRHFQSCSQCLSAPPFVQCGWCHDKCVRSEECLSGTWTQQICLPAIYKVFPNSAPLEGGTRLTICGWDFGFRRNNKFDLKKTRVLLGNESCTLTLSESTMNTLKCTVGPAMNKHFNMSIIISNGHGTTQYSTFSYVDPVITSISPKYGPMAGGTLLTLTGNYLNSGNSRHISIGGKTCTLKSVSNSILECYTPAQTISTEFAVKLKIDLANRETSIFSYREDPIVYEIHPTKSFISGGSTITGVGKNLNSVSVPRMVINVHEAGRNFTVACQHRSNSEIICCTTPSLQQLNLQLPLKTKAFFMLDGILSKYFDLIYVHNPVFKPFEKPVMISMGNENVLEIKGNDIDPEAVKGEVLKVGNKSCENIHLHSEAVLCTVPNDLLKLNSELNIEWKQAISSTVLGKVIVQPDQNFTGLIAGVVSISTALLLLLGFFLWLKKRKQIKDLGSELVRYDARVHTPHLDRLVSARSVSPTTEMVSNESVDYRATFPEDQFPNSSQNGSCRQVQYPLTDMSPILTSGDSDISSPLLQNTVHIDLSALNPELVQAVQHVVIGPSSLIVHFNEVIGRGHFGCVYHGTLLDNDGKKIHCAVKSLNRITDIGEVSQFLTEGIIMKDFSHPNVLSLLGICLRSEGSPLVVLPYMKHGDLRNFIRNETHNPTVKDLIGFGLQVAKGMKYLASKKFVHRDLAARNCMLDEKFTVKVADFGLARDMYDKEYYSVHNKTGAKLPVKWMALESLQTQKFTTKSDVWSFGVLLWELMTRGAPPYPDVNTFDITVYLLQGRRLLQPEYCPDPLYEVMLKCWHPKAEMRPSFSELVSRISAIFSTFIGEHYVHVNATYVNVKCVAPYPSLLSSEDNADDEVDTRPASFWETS
Description: as §2, with “2×c-MET” for “2×VEGFR2”, “2” for “0.5”, “5” for “30”, “400” for “200”, “2× c-MET” for “2×VEGFR-2”, “data: • 12.” for “data:”

Chain of MER kinase (Q12866 21-999): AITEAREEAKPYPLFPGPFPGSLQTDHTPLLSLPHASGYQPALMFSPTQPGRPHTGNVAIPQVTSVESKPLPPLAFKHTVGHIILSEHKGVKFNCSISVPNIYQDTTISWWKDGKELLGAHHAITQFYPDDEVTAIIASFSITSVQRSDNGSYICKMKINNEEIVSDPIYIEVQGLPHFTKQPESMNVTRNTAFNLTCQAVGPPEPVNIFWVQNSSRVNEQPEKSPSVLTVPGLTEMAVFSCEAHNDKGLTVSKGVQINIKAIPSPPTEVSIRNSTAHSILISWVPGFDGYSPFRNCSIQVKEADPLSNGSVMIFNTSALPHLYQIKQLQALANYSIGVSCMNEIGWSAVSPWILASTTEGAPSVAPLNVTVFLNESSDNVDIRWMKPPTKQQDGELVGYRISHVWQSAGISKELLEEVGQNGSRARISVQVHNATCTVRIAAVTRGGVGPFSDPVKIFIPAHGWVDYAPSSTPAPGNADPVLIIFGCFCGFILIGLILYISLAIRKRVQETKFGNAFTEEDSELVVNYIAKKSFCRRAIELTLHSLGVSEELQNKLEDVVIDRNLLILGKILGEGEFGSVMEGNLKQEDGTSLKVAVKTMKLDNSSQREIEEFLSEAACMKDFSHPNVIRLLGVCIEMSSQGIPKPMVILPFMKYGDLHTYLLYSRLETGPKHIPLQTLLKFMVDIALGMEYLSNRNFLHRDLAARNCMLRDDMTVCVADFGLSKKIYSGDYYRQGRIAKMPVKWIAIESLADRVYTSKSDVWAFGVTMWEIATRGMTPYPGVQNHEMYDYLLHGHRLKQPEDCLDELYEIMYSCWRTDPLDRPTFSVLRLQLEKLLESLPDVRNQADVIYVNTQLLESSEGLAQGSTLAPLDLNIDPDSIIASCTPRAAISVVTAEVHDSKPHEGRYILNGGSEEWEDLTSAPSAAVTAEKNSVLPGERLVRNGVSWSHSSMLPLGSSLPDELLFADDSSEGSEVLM

SMILES	IC50 (MER kinase) [nM]	IC50 (VEGFR-2 kinase) [nM]	IC50 (TRKA kinase) [nM]	IC50 (c-MET kinase) [nM]
COc1cc2nccc(Oc3ccc(NC(=O)c4cn(CC(=O)OC(C)(C)C)c(=O)n(-c5ccc(F)cc5)c4=O)cc3F)c2c2c1OCCO2 [Example 103, tert-butyl 2-(5-((3-fluoro-4-((5-methoxy-2,3-dihydro-[1,4]dioxino[2,3-f]quinolin-10-yl)oxy)phenyl)carbamoyl)-3-(4-fluorophenyl)-2,4-dioxo-3,4-dihydropyrimidin-1(2H)-yl)acetate]	50 to 500	500 to 5000		
COc1cc2nccc(Oc3ccc(NC(=O)c4cn(C(C)C)c(=O)n(-c5ccc(Cl)cc5)c4=O)cc3F)c2c2c1OCCO2 [Example 108, N-(3-fluoro-4-((5-methoxy-2,3-dihydro-[1,4]dioxino[2,3-f]quinolin-10-yl)oxy)phenyl)-3-(4-chlorophenyl)-1-isopropyl-2,4-dioxo-1,2,3,4-tetrahydropyrimidine-5-carboxamide]	50 to 500		500 to 5000	50 to 500
COc1cc2nccc(Oc3ccc(NC(=O)c4cn(C(C)C)c(=O)n(-c5ccccc5F)c4=O)cc3F)c2c2c1OCCO2 [Example 110, N-(3-fluoro-4-((5-methoxy-2,3-dihydro-[1,4]dioxino[2,3-f]quinolin-10-yl)oxy)phenyl)-3-(2-fluorophenyl)-1-isopropyl-2,4-dioxo-1,2,3,4-tetrahydropyrimidine-5-carboxamide]	≤ 50		500 to 5000	≤ 50
COc1cc2nccc(Oc3ccc(NC(=O)c4cn(C(C)C)c(=O)n(Cc5ccc(F)cc5)c4=O)cc3F)c2c2c1OCCO2 [Example 111, N-(3-fluoro-4-((5-methoxy-2,3-dihydro-[1,4]dioxino[2,3-f]quinolin-10-yl)oxy)phenyl)-3-(4-fluorobenzyl)-1-isopropyl-2,4-dioxo-1,2,3,4-tetrahydropyrimidine-5-carboxamide]	50 to 500		500 to 5000	500 to 5000
COc1cc2nccc(Oc3cc(Cl)c(NC(=O)c4cn(C(C)C)c(=O)n(-c5ccc(F)cc5)c4=O)cc3F)c2c2c1OCCO2 [Example 118, N-(2-chloro-5-fluoro-4-((5-methoxy-2,3-dihydro-[1,4]dioxino[2,3-f]quinolin-10-yl)oxy)phenyl)-3-(4-fluorophenyl)-1-isopropyl-2,4-dioxo-1,2,3,4-tetrahydropyrimidine-5-carboxamide]	50 to 500		50 to 500	50 to 500
Cn1cc(C(=O)Nc2ccc(Oc3ccnc4cc(OCCCC#N)c5c(c34)OCCO5)cc2Cl)c(=O)n(-c2ccc(F)cc2)c1=O [Example 133, N-(2-chloro-4-((5-(3-cyanopropoxy)-2,3-dihydro-[1,4]dioxino[2,3-f]quinolin-10-yl)oxy)phenyl)-3-(4-fluorophenyl)-1-methyl-2,4-dioxo-1,2,3,4-tetrahydropyrimidine-5-carboxamide]	500 to 5000		50 to 500	≤ 50
Cn1cc(C(=O)Nc2ccc(Oc3ccnc4cc(OC5CC5)c5c(c34)OCCO5)cc2)c(=O)n(-c2ccc(F)cc2)c1=O [Example 151, N-(4-((5-cyclopropyloxy-2,3-dihydro-[1,4]dioxino[2,3-f]quinolin-10-yl)oxy)phenyl)-3-(4-fluorophenyl)-1-methyl-2,4-dioxo-1,2,3,4-tetrahydropyrimidine-5-carboxamide]		500 to 5000	500 to 5000	≤ 50
CCn1cc(C(=O)Nc2ccc(Oc3ccnc4cc(OC5CC5)c5c(c34)OCCO5)cc2)c(=O)n(-c2ccc(F)cc2)c1=O [Example 152, N-(4-((5-cyclopropyloxy-2,3-dihydro-[1,4]dioxino[2,3-f]quinolin-10-yl)oxy)phenyl)-3-(4-fluorophenyl)-1-ethyl-2,4-dioxo-1,2,3,4-tetrahydropyrimidine-5-carboxamide]		> 5000	> 5000	≤ 50

Reference: patent US12202835B2, “Substituted aromatic ring-linked dioxinoquinazolines and dioxinoquinolines as kinase inhibitors” (BEIJING SCITECH-MQ PHARMACEUTICALS LIMITED, priority 2018, dated 2025)
